This assay relates to P. yoelii 17 XNL sporozoites. Put plainly: P. yoelii 17 XNL sporozoite challenge of AdPyCS-immunized mice. Type of assay: in vivo, BALB/c mice. To be noted: suboptimal AdPyCS IM; 200 μg IP days 1, 3, 5, 7; challenge day 12 with 100 sporozoites IV; AdPyCS alone 4.8 ± 0.6 days. As to the method:
Sporozoite challenge experiments were performed, as described previously ([32]). Briefly, immunized mice were administered 100 live P. yoelii 17 XNL sporozoites IV via the tail vein. Parasitemia was monitored from days 3 to 10 after sporozoite challenge by detecting the presence of parasitized red blood cells in thin blood smears to assess complete protection against malaria. Briefly, a drop of blood was collected from the mouse tail vein for thin blood smears on pre-cleaned glass slides. Thin blood smears were fixed with absolute methanol and then stained with diluted Giemsa stain (1:20, v/v) (Sigma-Aldrich, St. Louis, MO) for 10 min. […]
Figure 2 LD01 increases antigen-specific CD8^+ T cell numbers following AdPyCS vaccination. (A) At day 12 post-AdPyCS immunization, immunogenicity was assessed by measuring the number of splenic PyCS-specific, IFN-γ-secreting CD8^+ T cells using the ELISpot assay after stimulation with the H-2kd restricted CD8 epitope SYVPSAEQI. Data are expressed as the mean ± SD. […] Significant differences between AdPyCS + control peptide and treated mice were determined using a one-way ANOVA multiple comparisons test and are denoted by *p < 0.05 and **p < 0.005. […] Data represent two independent experiments (n = 10/group/experiment) and are expressed as the mean percent protection. […]

Turning to “OVA323−339 (KISQAVHAAHAEINEAG; UniProt P01012 323-339, looked up, fragment) [control peptide, control peptide used in AdPyCS vaccine studies]”, the time of patency was 4.7 ± 0.7 days.
